Experimental data reported in ChEMBL document CHEMBL1128412, “Mechanism-based development of new antimalarials: synthesis of derivatives of artemisinin attached to iron chelators” (J Med Chem, 1995).

System: Plasmodium falciparum
Assay: In vitro antimalarial activity against Plasmodium falciparum
Type: functional, organism-based

Row | Structure (SMILES) | IC50
1 | C[C@@H]1CC[C@H]2[C@@H](C)C(=O)O[C@@H]3O[C@@]4(C)CC[C@@H]1[C@]32OO4 [ARTEMISININ] | 0.00582 µM
2 | O=C(O)/C=C/c1ccc(O)c(O)c1 [CAFFEIC ACID] | 122 µM
3 | C[C@H]1[C@@H](OCCCOc2coc(CO)cc2=O)O[C@@H]2O[C@@]3(C)CC[C@H]4[C@H](C)CC[C@@H]1[C@@]24OO3 | 0.00955 µM
4 | C[C@H]1[C@@H](O)O[C@@H]2O[C@@]3(C)CC[C@H]4[C@H](C)CC[C@@H]1[C@@]24OO3 [ARTENIMOL] | 0.0011 µM
5 | O=C(NO)c1ccccc1 [BENZOHYDROXAMATE] | 17.6 µM
6 | COC(=O)/C=C/c1ccc(O)c(O)c1 [METHYLCAFFEATE] | 46.5 µM
7 | C[C@H]1[C@@H](OCCCONC(=O)c2ccccc2O)O[C@@H]2O[C@@]3(C)CC[C@H]4[C@H](C)CC[C@@H]1[C@@]24OO3 | 0.0525 µM
8 | C[C@H]1[C@@H](OCCCOc2cccc(O)c2O)O[C@@H]2O[C@@]3(C)CC[C@H]4[C@H](C)CC[C@@H]1[C@@]24OO3 | 0.0127 µM
9 | C[C@H]1[C@@H](OCCC2Oc3cccc(O)c3O2)O[C@@H]2O[C@@]3(C)CC[C@H]4[C@H](C)CC[C@@H]1[C@@]24OO3 (some centres undefined) | 0.00664 µM
10 | C[C@H]1[C@@H](OCCCBr)O[C@@H]2O[C@@]3(C)CC[C@H]4[C@H](C)CC[C@@H]1[C@@]24OO3 | 0.00368 µM
11 | C[C@H]1[C@@H](OCCCONC(=O)c2ccccc2)O[C@@H]2O[C@@]3(C)CC[C@H]4[C@H](C)CC[C@@H]1[C@@]24OO3 | 0.0236 µM
12 | C[C@H]1[C@@H](OCCC2ON2C(=O)c2ccccc2O)O[C@@H]2O[C@@]3(C)CC[C@H]4[C@H](C)CC[C@@H]1[C@@]24OO3 (some centres undefined) | 0.00425 µM
13 | COC(=O)/C=C/c1ccc(OCCCO[C@H]2O[C@@H]3O[C@@]4(C)CC[C@H]5[C@H](C)CC[C@@H]([C@H]2C)[C@@]35OO4)c(O)c1 | 0.00478 µM
14 | Oc1cccc(O)c1O [PYROGALLOL] | 5.66 µM
15 | C[C@H]1[C@@H](OCCCOc2c(O)cccc2O)O[C@@H]2O[C@@]3(C)CC[C@H]4[C@H](C)CC[C@@H]1[C@@]24OO3 | 0.00767 µM
16 | O=c1cc(CO)occ1O [KOJIC ACID] | 1580 µM
17 | CCN(CC)C(=S)SCCCO[C@H]1O[C@@H]2O[C@@]3(C)CC[C@H]4[C@H](C)CC[C@@H]([C@H]1C)[C@@]24OO3 | 0.00765 µM
18 | O=C(NO)c1ccccc1O [SALICYLHYDROXAMIC ACID] | 107 µM

System: Plasmodium falciparum
Assay: In vitro antimalarial activity against Plasmodium falciparum in 20 mM FeCl3
Type: functional, organism-based

Row | Structure (SMILES) | IC50
19 | C[C@@H]1CC[C@H]2[C@@H](C)C(=O)O[C@@H]3O[C@@]4(C)CC[C@@H]1[C@]32OO4 [ARTEMISININ] | 0.00541 µM
20 | C[C@H]1[C@@H](OCCCOc2coc(CO)cc2=O)O[C@@H]2O[C@@]3(C)CC[C@H]4[C@H](C)CC[C@@H]1[C@@]24OO3 | 0.0168 µM
21 | C[C@H]1[C@@H](OCCCONC(=O)c2ccccc2O)O[C@@H]2O[C@@]3(C)CC[C@H]4[C@H](C)CC[C@@H]1[C@@]24OO3 | 0.0487 µM
22 | C[C@H]1[C@@H](OCCCONC(=O)c2ccccc2)O[C@@H]2O[C@@]3(C)CC[C@H]4[C@H](C)CC[C@@H]1[C@@]24OO3 | 0.0329 µM
23 | COC(=O)/C=C/c1ccc(OCCCO[C@H]2O[C@@H]3O[C@@]4(C)CC[C@H]5[C@H](C)CC[C@@H]([C@H]2C)[C@@]35OO4)c(O)c1 | 0.00338 µM
24 | C[C@H]1[C@@H](OCCCOc2c(O)cccc2O)O[C@@H]2O[C@@]3(C)CC[C@H]4[C@H](C)CC[C@@H]1[C@@]24OO3 | 0.00921 µM
